Test results: PubChem BioAssay (NCI)
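Step 1: Grow cells in 96-well plates. Step 2: Expose to compound for 48 hours at 5 concentrations. Step 3: Interpolate endpoints linearly; if unreached, use highest concentration. The concentration for 50% growth inhibition is given as GI50. At the TGI there is no net growth.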 *1 amine or outer side, *2 acyl side, *3 side chain or, on linkers, in order; H or OH if unused. Where a SMILES comes first, the peptide text is derived from it. Bridges are numbered along the chain shown (N, C = ends). Roman numbers before positions name the chains, in order. [ ]: non-standard residue; d: D form. Actinocin(9to1) = Cc1c2oc3c(C)ccc(C(=O)[*:1])c3nc-2c(C(=O)[*:2])c(N)c1=O; NMeV = CN[CH](C(=O)O)C(C)C; Sar = CNCC(=O)O

Columns and labels:
Experiment in all cases: NCI-60 cell line screen, 48 h
[1] = tested on: DU-145 prostate
[2] = tested on: HL-60(TB) leukemia
[3] = tested on: HOP-92 NSCLC
[4] = tested on: K-562 leukemia
[5] = tested on: KM12 colon
[6] = tested on: NCI-H226 lung
[7] = tested on: NCI/ADR-RES ovarian
[8] = tested on: SK-MEL-2 melanoma
[9] = tested on: T-47D breast
[10] = tested on: TK-10 renal

Structure (SMILES)	TGI [1] [µM]	TGI [2] [µM]	TGI [3] [µM]	TGI [4] [µM]	TGI [5] [µM]	TGI [6] [µM]	TGI [7] [µM]	TGI [8] [µM]	TGI [9] [µM]	TGI [10] [µM]	GI50 [1] [µM]	GI50 [2] [µM]	GI50 [3] [µM]	GI50 [4] [µM]	GI50 [5] [µM]	GI50 [6] [µM]	GI50 [7] [µM]	GI50 [8] [µM]	GI50 [9] [µM]	GI50 [10] [µM]
CCn1c(-c2c(Cl)cc(O)cc2Cl)cc2c(Cl)cc(O)cc21	> 100	26.2	59.4	> 100	61	> 100	> 100	17.1	27.4	59.2										
O=C1/C(=C/c2ccc(F)c(F)c2)CN(C(=O)C(Cl)Cl)C/C1=C\c1ccc(F)c(F)c1	0.925	0.97	0.629	> 100	0.2	5.72	0.868	0.785	2.05	0.84	0.312	0.113	0.211	0.0235	0.0497	1.13	0.0633	0.262	0.302	0.258
Cc1cc2c(cc1C)[n+](=O)c(C(=O)/C=C/c1ccc3c(c1)OCO3)c(C)n2[O-]	> 100	> 100	69.1	> 100	> 100	> 100	> 100	88.6	> 100	53.3										
CN(C)C[C@H]1CCn2c(c(C3=C(c4cn(C)c5ccccc45)C(=O)NC3=O)c3ccccc32)C1	10.8	11.3	10.9	10.8	8.66	14.1	14.2	9.23	11.2	8.77	5.46	5.65	4.19	5.29	4.57	5.13	5.67	4.97	5.43	3.61
O=C(Nc1ccc2ncnc(Nc3ccc(Oc4cccc(F)c4)c(Cl)c3)c2c1)c1ccc(CN2CCOCC2)cc1	15.8	7.88	15.4	11.7	7.66	33.7	7.16	5.46	4.2	13.5	3.14	2.69	2.38	2.47	2.57	5.12	2.33	2.27	1.09	3.08
CC(=Nc1ccccc1)C1=C(O)C(Cc2cccc(F)c2)NC1=O (stereo not drawn)	10.2		> 21.1	> 100	> 100	> 100	0.186	> 100	> 100	> 100	0.086	0.0334	0.0242	0.0412	0.0457	5.25	0.0348	0.0626	0.0425	6.15
Nc1ncn(C2OC(COP(=O)(O)O)C(O)C2O)c(=O)n1 (stereo not drawn)	> 100	> 100	> 100	> 100	> 100	> 100	> 100	> 100	> 100	> 100										
C=C1C(=O)O[C@H]2[C@H]1CC/C(COC(=O)c1cn(C)c3ccccc13)=C\CC[C@@]1(C)O[C@@H]21	2.2	4.17	2	5.13	4.79	3.26	14.2	2.82	3.42	2.3	1.01	1.54	0.365	0.4	1.83	1.48	2.15	1.38	1.19	1.1
c1cc(CN2CCCNCCNCCCNCC2)ccc1CN1CCCNCCNCCCNCC1	> 100	> 100	> 100	> 100	> 100	> 100	> 100	> 100	> 100	> 100	> 100	> 100	> 100	> 100	> 100	> 100	> 100	> 100	> 100	> 100
O=P(O)(O)OCC1OC(n2cnc3c(NCc4ccco4)ncnc32)C(O)C1O (stereo not drawn)	2.4	0.601	13.4	> 57.5	> 42.6	> 56.5	> 53.7	> 50.7	17.3	> 43.9	0.57	0.231	1.36	3.01	4.44	7.13	1.62	11.1	3.24	1.77
CCOc1cc(C(=O)O)c2c(ccc3ccc(OC)c(OC)c32)c1OC	> 100	> 100	> 100	> 100	> 100	> 100	> 100	> 100	> 100	> 100										
CN(C)C(=S)/N=c1\ssc(=S)n1Cc1cccs1	> 100	13.9	> 89.1	> 55.8	> 100	> 100	5.1	25.7	> 100	> 81.6										
O=C1Nc2ccccc2/C1=C\c1cccc(/C=C2/C(=O)Nc3ccccc32)n1	2.26		4.49	> 37.9	1.02	5.13	6.47	1.62	3.4	1.41	0.881	0.452	1.48	0.291	0.282	1.53	0.689	0.631	1.13	0.416
CCCCC[C@H]1CC=C2C(=O)C=C[C@@H]2CC=CCCCC(=O)O[C@@H](CCCCC)CC=C2C(=O)C=C[C@@H]2CC=CCCCC(=O)O[C@@H](CCCCC)CC=C2C(=O)C=C[C@@H]2CC=CCCCC(=O)O1	2.52	0.76	1.82	> 8.75	1.22	3.81	> 8.75	0.969	0.713	3.53	0.353	0.243	0.359	0.317	0.31	1.13	4.24	0.281	0.195	0.478
C=C1C(=O)O[C@H]2[C@H]1CC/C(Cn1cc(Cc3c[nH]c4ccccc34)nn1)=C\CC[C@@]1(C)O[C@@H]21	2.88	4.74	3.75	6.14	4.99	4.75	21.9	3.95	4.7	3.4	1.54	2.02	2	1.81	2.34	2.1	6.22	1.98	1.87	1.82
COc1cccc(Sc2ccc([N+](=O)[O-])c3no[n+]([O-])c23)c1	24.4	14.6	32.7	13	33.5	53.5	19.1	45.2	14.4	24.7	11.3	5.12	15.5	3.66	17.2	18.2	5.97	20.9	3.36	10.9
Cc1c2oc3c(C)ccc(C(=O)OC(C)C4NC(=O)C(C(C)C)N(C)C(=O)CN(C)C(=O)C5CCCN5C(=O)C(C(C)C)NC4=O)c3nc-2c(C(=O)OC(C)C2NC(=O)C(C(C)C)N(C)C(=O)CN(C)C(=O)C3CCCN3C(=O)C(C(C)C)NC2=O)c(N)c1=O (stereo not drawn) (I: cyclo([Sar][NMeV]TVP) / II: cyclo([Sar][NMeV]TVP); linker I:3-II:3 via Actinocin(9to1); configuration not given here)	> 30.7	0.212	0.0989	> 100	0.793	0.0335	> 100	< 0.0152	> 100	0.894	< 0.0107	< 0.0165	< 0.01	< 0.01	< 0.01	< 0.01	0.541	< 0.01	< 0.01	< 0.0127
Clc1ccccc1[C@@H]1C[C@@H]2Cc3cc(Br)c4ccccc4c3N1O2	> 100	> 100	35.6	> 100	> 100	> 100	> 100	6.61	> 100	> 100	5.59	4.4	3.07	3.92	4.23	3.65	2.75	2.54	4.26	5.54
CCN(CC)CCC(=O)OC1C(C)=CC(C)C(=O)CC(C(C)CC2CCC(O)C(OC)C2)OC(=O)C2CCCCN2C(=O)C(=O)[C@@]2(O)OC(CCC2C)CC(OC)\C(C)=C/C=C/C=C/C(C)CC(C)C(=O)C1OC (stereo partly drawn)	19.7	16	21.9	21.4	21.2	26.8	25.8	18.9	14.6	23.2										
